Structures can show the parent of a compound that is named as a salt.

This test deals with T1, human GRIN1 (transcript variant NR1-3) and GRIN2D expressed in Xenopus oocytes (Homo sapiens, UniProt O15399).
T1 construct: GenScript (GRIN2D synthesis) SC115601; host or cells: Xenopus oocytes injected with cRNA (1 GluN1 : 2 GluN2)
T1 sequence (O15399 28-1336, other chains not shown): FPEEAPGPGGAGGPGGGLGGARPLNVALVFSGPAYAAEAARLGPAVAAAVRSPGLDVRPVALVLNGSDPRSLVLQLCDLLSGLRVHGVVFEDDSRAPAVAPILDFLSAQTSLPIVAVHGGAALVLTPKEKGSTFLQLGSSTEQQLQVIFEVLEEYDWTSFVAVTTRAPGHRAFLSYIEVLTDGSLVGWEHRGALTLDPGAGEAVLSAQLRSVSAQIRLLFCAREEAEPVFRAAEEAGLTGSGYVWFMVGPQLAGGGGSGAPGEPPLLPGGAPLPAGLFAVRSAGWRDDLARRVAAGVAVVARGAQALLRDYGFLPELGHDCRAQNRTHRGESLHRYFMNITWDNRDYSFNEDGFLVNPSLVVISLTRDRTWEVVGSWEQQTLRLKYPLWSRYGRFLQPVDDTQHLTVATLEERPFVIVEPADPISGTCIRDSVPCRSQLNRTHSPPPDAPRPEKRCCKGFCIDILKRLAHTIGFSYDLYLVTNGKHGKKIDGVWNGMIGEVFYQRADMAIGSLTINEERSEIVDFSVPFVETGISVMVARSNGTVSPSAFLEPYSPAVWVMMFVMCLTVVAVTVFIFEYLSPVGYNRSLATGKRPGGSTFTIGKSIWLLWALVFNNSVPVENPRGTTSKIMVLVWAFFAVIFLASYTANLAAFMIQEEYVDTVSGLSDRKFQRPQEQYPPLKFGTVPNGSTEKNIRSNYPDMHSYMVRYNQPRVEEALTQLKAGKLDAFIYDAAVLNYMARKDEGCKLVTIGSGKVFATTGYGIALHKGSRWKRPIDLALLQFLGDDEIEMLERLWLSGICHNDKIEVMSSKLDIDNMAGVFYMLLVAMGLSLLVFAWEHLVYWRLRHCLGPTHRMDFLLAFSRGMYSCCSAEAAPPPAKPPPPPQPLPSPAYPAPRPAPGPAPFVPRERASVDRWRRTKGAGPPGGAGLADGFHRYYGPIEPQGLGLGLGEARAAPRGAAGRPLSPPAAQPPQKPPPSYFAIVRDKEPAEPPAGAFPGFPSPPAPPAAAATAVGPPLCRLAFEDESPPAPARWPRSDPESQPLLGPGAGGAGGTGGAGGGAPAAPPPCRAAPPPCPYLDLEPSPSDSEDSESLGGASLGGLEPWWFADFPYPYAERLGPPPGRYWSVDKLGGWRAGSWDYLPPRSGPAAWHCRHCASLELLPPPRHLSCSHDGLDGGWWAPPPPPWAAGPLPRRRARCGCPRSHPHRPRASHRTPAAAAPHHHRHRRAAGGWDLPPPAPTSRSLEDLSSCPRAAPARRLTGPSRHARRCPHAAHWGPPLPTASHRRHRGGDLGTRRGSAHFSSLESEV
Description: NR2D oocyte potentiation assay (two-electrode voltage clamp). The note with it: 10 uM test compound; glutamate and glycine 10 μM each; holding potential −40 mV. Format: cell-based. A digest of the protocol:
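Xenopus oocytes were defolliculated with collagenase, then injected with 50 nL of cRNA encoding human GluN1 (NR1-3 variant) and GluN2D mixed 1:2 and kept 72 h at 16° C. Two-electrode voltage clamp at −40 mV recorded currents; after 10 μM glutamate plus 10 μM glycine reached plateau, test compound was added until a new plateau formed.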
In general terms: In two-electrode clamp one electrode senses voltage and the other passes current.
As for `CC(C)(C)c1ccc(-c2nc3n(c(=O)c2C#N)C[C@@H](CF)CS3)cn1` [Example 131, (S)-8-(6-(tert-butyl)pyridin-3-yl)-3-(fluoromethyl)-6-oxo-3,4-dihydro-2H,6H-pyrimido[2,1-b][1,3]thiazine-7-carbonitrile], the activation at 10 µM was > 1000%. `CC(C)(C)c1ccc(-c2nc3n(c(=O)c2C#N)C[C@H](CF)CS3)cn1` [Example 132, (R)-8-(6-(tert-butyl)pyridin-3-yl)-3-(fluoromethyl)-6-oxo-3,4-dihydro-2H,6H-pyrimido[2,1-b][1,3]thiazine-7-carbonitrile]: the activation at 10 µM fell in the range of 100 to 500%. Consider `C[C@H]1CSc2nc(-c3ccc(C(C)(C)N(C)C)nc3)c(C#N)c(=O)n2C1` [Example 133, (R)-8-(6-(2-(dimethylamino)propan-2-yl)pyridin-3-yl)-3-methyl-6-oxo-3,4-dihydro-2H,6H-pyrimido[2,1-b][1,3]thiazine-7-carbonitrile], for which the “NR2D Oocyte % Potentiation @ 10 uM” value is given as “Inhibitor”. On to `C[C@@H]1CSc2nc(-c3ccc(C(C)(C)N(C)C)nc3)c(C#N)c(=O)n2C1` [Example 134, (S)-8-(6-(2-(dimethylamino)propan-2-yl)pyridin-3-yl)-3-methyl-6-oxo-3,4-dihydro-2H,6H-pyrimido[2,1-b][1,3]thiazine-7-carbonitrile], for which the activation at 10 µM was < 10%. Consider `CC1CSc2cc(-c3cnc(C4(C)CC4)c(F)c3)c(C#N)c(=O)n2C1` (stereo not drawn) [Example 135, 8-(5-fluoro-6-(1-methylcyclopropyl)pyridin-3-yl)-3-methyl-6-oxo-3,4-dihydro-2H,6H-pyrido[2,1-b][1,3]thiazine-7-carbonitrile], for which the activation at 10 µM was > 1000%. Still for that read-out and setting: under `CC1(c2ncc(-c3cc4n(c(=O)c3C#N)CCCS4)cc2F)CC1` [Example 136, 8-[5-fluoro-6-(1-methyl-cyclopropyl)pyridin-3-yl]-6-oxo-2H,3H,4H,6H-pyrido [2,1-b][1,3] thiazine-7-carbonitrile] stands > 1000%; under `CC(C)(C)c1ncc(-c2nc3n(c(=O)c2C#N)C[C@@H](CO)CS3)cn1` [Example 137, (S)-8-(2-(tert-butyl)pyrimidin-5-yl)-3-(hydroxymethyl)-6-oxo-3,4-dihydro-2H,6H-pyrimido[2,1-b][1,3]thiazine-7-carbonitrile], 100 to 500%. `CC(C)(C)c1ncc(-c2nc3n(c(=O)c2C#N)C[C@H](CO)CS3)cn1` [Example 138, (R)-8-(2-(tert-butyl)pyrimidin-5-yl)-3-(hydroxymethyl)-6-oxo-3,4-dihydro-2H,6H-pyrimido[2,1-b][1,3]thiazine-7-carbonitrile]: the activation at 10 µM is > 1000%. `C[C@H]1CSc2nc(-c3cnc(C(C)(C)C)c(O)c3)c(C#N)c(=O)n2C1` [Example 139, (R)-8-(6-(tert-butyl)-5-hydroxypyridin-3-yl)-3-methyl-6-oxo-3,4-dihydro-2H,6H-pyrimido[2,1-b][1,3]thiazine-7-carbonitrile]: the activation at 10 µM is > 1000%. Still for that read-out and setting: the figure for `C[C@@H]1CSc2nc(-c3cnc(C(C)(C)C)c(O)c3)c(C#N)c(=O)n2C1` [Example 140, (S)-8-(6-(tert-butyl)-5-hydroxypyridin-3-yl)-3-methyl-6-oxo-3,4-dihydro-2H,6H-pyrimido[2,1-b][1,3]thiazine-7-carbonitrile] is 500 to 1000%. `CC(C)(C)c1ncc(-c2nc3n(c(=O)c2C#N)C[C@@H](CF)CS3)cn1` [Example 141, (S)-8-(2-(tert-butyl)pyrimidin-5-yl)-3-(fluoromethyl)-6-oxo-3,4-dihydro-2H,6H-pyrimido[2,1-b][1,3]thiazine-7-carbonitrile]: the activation at 10 µM was 500 to 1000%. Take `CC(C)(C)c1ncc(-c2nc3n(c(=O)c2C#N)C[C@H](CF)CS3)cn1` [Example 142, (R)-8-(2-(tert-butyl)pyrimidin-5-yl)-3-(fluoromethyl)-6-oxo-3,4-dihydro-2H,6H-pyrimido[2,1-b][1,3]thiazine-7-carbonitrile]: the activation at 10 µM was 500 to 1000%. For the compound `CC(C)(C)c1ccc(-c2nc3n(c(=O)c2C#N)CC(C(F)(F)F)CS3)cn1` (stereo not drawn) [Example 143, 8-(6-(tert-butyl)pyridin-3-yl)-6-oxo-3-(trifluoromethyl)-3,4-dihydro-2H,6H-pyrimido[2,1-b][1,3]thiazine-7-carbonitrile], the activation at 10 µM fell in the range of 100 to 500%. As for `CC(C)(C)OC(=O)NCC1CSc2nc(-c3ccc(C(C)(C)C)nc3)c(C#N)c(=O)n2C1` (stereo not drawn) [Example 144, tert-butyl ((8-(6-(tert-butyl)pyridin-3-yl)-7-cyano-6-oxo-3,4-dihydro-2H,6H-pyrimido[2,1-b][1,3]thiazin-3-yl)methyl)carbamate], the activation at 10 µM is > 1000%. On to `CC(C)(C)c1ccc(-c2nc3n(c(=O)c2C#N)CC(CN)CS3)cn1` (stereo not drawn) [Example 145, 3-(aminomethyl)-8-(6-(tert-butyl)pyridin-3-yl)-6-oxo-3,4-dihydro-2H,6H-pyrimido[2,1-b][1,3]thiazine-7-carbonitrile hydrochloride], for which the activation at 10 µM lay within 10 to 100%. Still for that read-out and setting: the figure for `CC(=O)NCC1CSc2nc(-c3cnc(C(C)(C)C)c(F)c3)c(C#N)c(=O)n2C1` (stereo not drawn) [Example 146, N-((8-(6-(tert-butyl)-5-fluoropyridin-3-yl)-7-cyano-6-oxo-3,4-dihydro-2H,6H-pyrimido[2,1-b][1,3]thiazin-3-yl)methyl)acetamide] is > 1000%; for `CCOC(=O)NCC1CSc2nc(-c3cnc(C(C)(C)C)c(F)c3)c(C#N)c(=O)n2C1` (stereo not drawn) [Example 147, ethyl ((8-(6-(tert-butyl)-5-fluoropyridin-3-yl)-7-cyano-6-oxo-3,4-dihydro-2H,6H-pyrimido[2,1-b][1,3]thiazin-3-yl)methyl)carbamate] it is > 1000%. The same measure, in the same setting: the figure for `CC1CSc2nc(-c3ccc(C45CC(C4)C5)nc3)c(C#N)c(=O)n2C1` (stereo not drawn) [Example 148, 8-(6-(bicyclo[1.1.1]pentan-1-yl)pyridin-3-yl)-3-methyl-6-oxo-3,4-dihydro-2H,6H-pyrimido[2,1-b][1,3]thiazine-7-carbonitrile] is 100 to 500%; for `CC1CSc2nc(-c3cccnc3C34CC(C3)C4)c(C#N)c(=O)n2C1` (stereo not drawn) [Example 149, 8-(2-(bicyclo[1.1.1]pentan-1-yl)pyridin-3-yl)-3-methyl-6-oxo-3,4-dihydro-2H,6H-pyrimido[2,1-b][1,3]thiazine-7-carbonitrile] it is < 10%. As for `CC1CSc2nc(-c3ccc(C45CC(C4)C5)nc3C34CC(C3)C4)c(C#N)c(=O)n2C1` (stereo not drawn) [Example 150, 8-(2,6-di(bicyclo[1.1.1]pentan-1-yl)pyridin-3-yl)-3-methyl-6-oxo-3,4-dihydro-2H,6H-pyrimido[2,1-b][1,3]thiazine-7-carbonitrile], the “NR2D Oocyte % Potentiation @ 10 uM” value is reported as “Inhibitor”.

In the case of `CC1CSc2nc(-c3ccc(C(C)(C)CF)nc3)c(C#N)c(=O)n2C1` (stereo not drawn) [Example 151, 8-(6-(1-fluoro-2-methylpropan-2-yl)pyridin-3-yl)-3-methyl-6-oxo-3 4-dihydro-2H,6H-pyrimido[2,1-b][1,3]thiazine-7-carbonitrile], the activation at 10 µM fell in the range of 500 to 1000%.

As for `CC(C)(CF)c1ccc(-c2nc3n(c(=O)c2C#N)CCCS3)cn1` [Example 152, 8-(6-(1-fluoro-2-methylpropan-2-yl)pyridin-3-yl)-6-oxo-3,4-dihydro-2H,6H-pyrimido[2,1-b][1,3]thiazine-7-carbonitrile], the activation at 10 µM fell in the range of 100 to 500%. On the same count and under the same terms, the figure for `CC1CSc2nc(-c3ccc(C4(C)COC4)nc3)c(C#N)c(=O)n2C1` (stereo not drawn) [Example 153, 3-methyl-8-(6-(3-methyloxetan-3-yl)pyridin-3-yl)-6-oxo-3,4-dihydro-2H,6H-pyrimido[2,1-b][1,3]thiazine-7-carbonitrile] is 100 to 500%; for `CC1(c2ccc(-c3nc4n(c(=O)c3C#N)CCCS4)cn2)COC1` [Example 154, 8-(6-(3-methyloxetan-3-yl)pyridin-3-yl)-6-oxo-3,4-dihydro-2H,6H-pyrimido[2,1-b][1,3]thiazine-7-carbonitrile] it is 10 to 100%; for `CC1CSc2nc(-c3ccc(C(C)(CF)CF)nc3)c(C#N)c(=O)n2C1` (stereo not drawn) [Example 155, 8-(6-(1,3-difluoro-2-methylpropan-2-yl)pyridin-3-yl)-3-methyl-6-oxo-3,4-dihydro-2H,6H-pyrimido[2,1-b][1,3]thiazine-7-carbonitrile] it is 100 to 500%. Same read-out and setting: the figure for `CC(CF)(CF)c1ccc(-c2nc3n(c(=O)c2C#N)CCCS3)cn1` [Example 156, 8-(6-(1,3-difluoro-2-methylpropan-2-yl)pyridin-3-yl)-6-oxo-3,4-dihydro-2H,6H-pyrimido[2,1-b][1,3]thiazine-7-carbonitrile] is 100 to 500%. Regarding `CC(C)(C)c1ncc(-c2nc3n(c(=O)c2C#N)C[C@@H](CO)CS3)cc1F` [Example 157, (S)-8-(6-(tert-butyl)-5-fluoropyridin-3-yl)-3-(hydroxymethyl)-6-oxo-3,4-dihydro-2H,6H-pyrimido[2,1-b][1,3]thiazine-7-carbonitrile], the activation at 10 µM is > 1000%.

On to `CC(C)(C)c1ncc(-c2nc3n(c(=O)c2C#N)C[C@H](CO)CS3)cc1F` [Example 158, (R)-8-(6-(tert-butyl)-5-fluoropyridin-3-yl)-3-(hydroxymethyl)-6-oxo-3,4-dihydro-2H,6H-pyrimido[2,1-b][1,3]thiazine-7-carbonitrile], for which the activation at 10 µM was > 1000%. The same measure, in the same setting: under `CC(C)(C)c1ncc(-c2nc3n(c(=O)c2C#N)CC(CN2CCCC2)CS3)cc1F` (stereo not drawn) [Example 159, 8-(6-(tert-butyl)-5-fluoropyridin-3-yl)-6-oxo-3-(pyrrolidin-1-ylmethyl)-3,4-dihydro-2H,6H-pyrimido[2,1-b][1,3]thiazine-7-carbonitrile] stands 10 to 100%; under `CN(C)CC1CSc2nc(-c3cnc(C(C)(C)C)c(F)c3)c(C#N)c(=O)n2C1` (stereo not drawn) [Example 160, 8-(6-(tert-butyl)-5-fluoropyridin-3-yl)-3-((dimethylamino)methyl)-6-oxo-3,4-dihydro-2H,6H-pyrimido[2,1-b][1,3]thiazine-7-carbonitrile], 10 to 100%.

The record behind these values is patent US11807650B2, “NMDA receptor modulators and uses thereof” (Novartis AG, priority 2016, dated 2023).
